Laboratory results: US7704995B2 (Exelixis, Inc., priority 2003, dated 2010)

Assays:
Test in all cases: Kinase specificity assay (33P phosphoryl transfer, LCCA or AlphaScreen)
Format in all cases: biochemical
PDGFR-β = PDGFR-β (Homo sapiens, UniProt P09619); conditions: ATP close to KM; read-out: PDGFR-β inhibition, IC50
Protocol: (§1) Kinase activity and compound inhibition are investigated using one or more of the three assay formats described below. The ATP concentrations for each assay are selected to be close to the Michaelis-Menten constant (KM) for each individual kinase. Dose-response experiments are performed at 10 different inhibitor concentrations in a 384-well plate format. The data are fitted to the following four-parameter equation: Y=Min+(Max−Min)/(1+(X/IC50)^H) where Y is the observed signal, X is the inhibitor concentration, Min is the background signal in the absence of enzyme (0% enzyme activity), Max is the signal in the absence of inhibitor (100% enzyme activity), IC50 is the inhibitor concentration at 50% enzyme inhibition and H represents the empirical Hill's slope to measure the cooperativity. Typically H is close to unity. ^33P Phosphoryl Transfer Assay:
(§2) Greiner 384-well white, clear bottom, high binding plates are coated with 2 μg/well of protein or peptide substrate in a 50 μL volume overnight at ambient temperature. The coating buffer typically contains 40 μg/mL substrate, 22.5 mM Na2CO3, 27.5 mM NaHCO3, 150 mM NaCl and 3 mM NaN3. The coating solution is aspirated and the plates are washed once with 50 μL of assay buffer and padded dry. Subsequently compounds and enzymes are mixed with γ^33P-ATP (3.3 μCi/nmol) in a total volume of 20 uL in suitable assay buffers. The mixture is incubated at ambient temperature for 1.5-2.5 hrs and terminated by aspiration using a Molecular Devices EMBLA 96-head plate washer. The plates are subsequently washed 6-12 times with PBST or TBS buffer. Scintillation fluid (50 μl/well) is then added, the plates are sealed and activity assessed by liquid scintillation spectrometry using a Perkin Elmer MicroBeta TriLux.
(§3) In the LCCA assays, kinase activity is measured as the percent ATP consumed following the kinase reaction using luciferase-luciferin-coupled chemiluminescence. Greiner 384-well white, clear bottom, medium binding plates are used for LCCA. Briefly, the kinase reaction is initiated by mixing compounds, ATP and kinase in a 20 uL volume. The mixture is incubated at ambient temperature for 2-4 hrs. At the end of the kinase reaction, a 20 uL luciferase-luciferin mix is added and the chemiluminescent signal is read using a Wallac Victor^2 reader. The luciferase-luciferin mix consists of 50 mM HEPES, pH 7.8, 8.5 ug/mL oxalic acid (pH 7.8), 5 (or 50) mM DTT, 0.4% Triton X-100, 0.25 mg/mL coenzyme A, 63 uM AMP, 28 ug/mL luciferin and 40,000 units of light/mL luciferase. For the LCCA assays, total ATP consumption has been standardized to 25-45% and the IC50 values correlates well with those determined by radiometric assays.
(§4) AlphaScreen technology is a proximity assay which utilizes the increase in fluorescent signal when donor and acceptor beads are close in proximity. Biotinylated poly(Glu,Tyr) 4:1 is used as the kinase substrate, in conjunction with streptavidin-coated donor beads and anti-phosphortyrosine antibody PY100-coated acceptor beads. Upon phosphorylation, the peptide substrate can bind to both donor and acceptor beads giving rise to an increase in fluorescence. Compounds, ATP, biotinylated poly(Glu, Tyr) and kinases are mixed in a volume of 20 uL for 1 hr at ambient temperature using Greiner 384-well white clear bottom medium binding plates. Following incubation a 10 uL solution containing […] AlphaScreen beads, 75 mM Hepes, pH 7.4, 300 mM NaCl, 120 mM EDTA, 0.3% BSA and 0.03% Tween-20 is added to each well. After 2-16 hr incubation of the beads, plates are read in a Perkin Elmer AlphaQuest reader. The IC50 values correlates well with those of radiometric assays.

MAP4K3 = target: T1, MAP4K3 (Homo sapiens, UniProt Q8IVH8); conditions: ATP close to KM; read-out: MAP4K3 inhibition, IC50
T1 sequence (Q8IVH8 1-894): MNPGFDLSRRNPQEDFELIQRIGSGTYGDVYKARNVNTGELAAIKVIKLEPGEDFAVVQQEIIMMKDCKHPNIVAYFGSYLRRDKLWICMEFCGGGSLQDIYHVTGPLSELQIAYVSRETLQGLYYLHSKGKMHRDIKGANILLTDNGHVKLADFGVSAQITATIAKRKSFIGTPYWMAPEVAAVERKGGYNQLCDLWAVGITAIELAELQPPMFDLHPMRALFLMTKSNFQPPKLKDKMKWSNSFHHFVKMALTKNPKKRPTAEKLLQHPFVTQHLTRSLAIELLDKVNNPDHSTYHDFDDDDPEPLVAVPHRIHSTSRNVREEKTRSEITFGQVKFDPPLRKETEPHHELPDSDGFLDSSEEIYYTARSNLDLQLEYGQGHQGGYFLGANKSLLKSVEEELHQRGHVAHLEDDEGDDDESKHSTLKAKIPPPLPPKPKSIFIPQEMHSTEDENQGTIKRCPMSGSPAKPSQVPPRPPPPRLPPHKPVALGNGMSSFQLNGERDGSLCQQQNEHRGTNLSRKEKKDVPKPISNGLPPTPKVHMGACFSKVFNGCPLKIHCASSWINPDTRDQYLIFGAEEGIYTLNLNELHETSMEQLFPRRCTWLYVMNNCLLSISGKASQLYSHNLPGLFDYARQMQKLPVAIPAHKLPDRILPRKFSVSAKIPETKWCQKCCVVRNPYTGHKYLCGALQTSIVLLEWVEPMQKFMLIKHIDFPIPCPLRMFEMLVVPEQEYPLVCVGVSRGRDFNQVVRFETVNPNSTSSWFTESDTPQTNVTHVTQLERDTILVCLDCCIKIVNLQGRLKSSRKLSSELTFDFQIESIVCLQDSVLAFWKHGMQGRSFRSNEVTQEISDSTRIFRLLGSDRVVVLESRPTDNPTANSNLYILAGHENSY
Protocol: as §1, §2, §3, §4

Fyn = Fyn (Homo sapiens, UniProt P06241); conditions: ATP close to KM; read-out: Fyn inhibition, IC50
Fyn, sequence (P06241 whole entry): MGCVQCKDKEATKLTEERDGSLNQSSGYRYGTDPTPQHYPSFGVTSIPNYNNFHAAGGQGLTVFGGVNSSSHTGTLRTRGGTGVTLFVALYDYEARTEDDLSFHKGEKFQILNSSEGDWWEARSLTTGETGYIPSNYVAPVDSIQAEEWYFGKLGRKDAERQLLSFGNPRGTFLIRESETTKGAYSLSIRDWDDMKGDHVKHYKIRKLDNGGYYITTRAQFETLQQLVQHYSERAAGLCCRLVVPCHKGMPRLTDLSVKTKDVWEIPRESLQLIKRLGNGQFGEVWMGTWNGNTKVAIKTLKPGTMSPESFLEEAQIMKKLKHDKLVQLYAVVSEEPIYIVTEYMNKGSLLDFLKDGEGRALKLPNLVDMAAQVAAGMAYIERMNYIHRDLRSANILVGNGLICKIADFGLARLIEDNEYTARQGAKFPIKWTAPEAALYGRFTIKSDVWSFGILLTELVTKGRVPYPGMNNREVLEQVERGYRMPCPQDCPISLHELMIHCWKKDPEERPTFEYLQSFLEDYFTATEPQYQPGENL
Protocol: as §1, §2, §3, §4

PLK = PLK (Homo sapiens, UniProt P53350); conditions: ATP close to KM; read-out: PLK inhibition, IC50
PLK, sequence (P53350 whole entry): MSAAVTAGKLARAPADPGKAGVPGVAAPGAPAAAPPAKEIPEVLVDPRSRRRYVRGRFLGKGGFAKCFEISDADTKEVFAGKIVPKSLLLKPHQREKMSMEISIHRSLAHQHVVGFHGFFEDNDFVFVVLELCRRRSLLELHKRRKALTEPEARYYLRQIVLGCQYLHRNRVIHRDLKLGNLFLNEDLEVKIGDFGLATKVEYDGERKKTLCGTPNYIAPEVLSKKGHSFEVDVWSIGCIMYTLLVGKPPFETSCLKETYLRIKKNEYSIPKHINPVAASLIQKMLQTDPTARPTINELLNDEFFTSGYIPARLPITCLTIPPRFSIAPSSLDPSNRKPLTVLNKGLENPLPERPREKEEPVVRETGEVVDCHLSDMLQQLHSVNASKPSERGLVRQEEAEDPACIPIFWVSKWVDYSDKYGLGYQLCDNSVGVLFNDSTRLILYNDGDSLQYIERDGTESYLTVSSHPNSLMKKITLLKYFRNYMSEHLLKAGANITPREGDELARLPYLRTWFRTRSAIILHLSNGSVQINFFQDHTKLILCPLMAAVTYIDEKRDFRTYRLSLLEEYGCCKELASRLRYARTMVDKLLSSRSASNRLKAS
Protocol: as §1, §2, §3, §4

CLK1 = CLK1 (Homo sapiens, UniProt P49759); conditions: ATP close to KM; read-out: CLK1 inhibition, IC50
CLK1, sequence (P49759 whole entry): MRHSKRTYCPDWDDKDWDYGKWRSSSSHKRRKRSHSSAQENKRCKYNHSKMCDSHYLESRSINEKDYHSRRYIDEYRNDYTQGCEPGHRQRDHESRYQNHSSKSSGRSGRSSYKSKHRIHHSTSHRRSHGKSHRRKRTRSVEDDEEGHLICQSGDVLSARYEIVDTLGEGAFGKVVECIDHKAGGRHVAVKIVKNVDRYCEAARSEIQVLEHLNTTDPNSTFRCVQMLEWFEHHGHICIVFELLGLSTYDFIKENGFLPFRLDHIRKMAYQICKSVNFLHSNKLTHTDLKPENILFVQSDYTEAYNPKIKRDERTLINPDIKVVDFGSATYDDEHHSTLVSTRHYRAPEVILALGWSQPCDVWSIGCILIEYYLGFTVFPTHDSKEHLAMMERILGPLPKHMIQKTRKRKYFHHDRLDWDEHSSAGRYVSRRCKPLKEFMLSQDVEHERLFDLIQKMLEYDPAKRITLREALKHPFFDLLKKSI
Protocol: as §1, §2, §3, §4

ErbB2 = ErbB2 (Homo sapiens, UniProt P04626); conditions: ATP close to KM; read-out: ErbB2 inhibition, IC50
Protocol: as §1, §2, §3, §4

Flt1 = Flt1 (Homo sapiens, UniProt P17948); conditions: ATP close to KM; read-out: Flt1 inhibition, IC50
Flt1, sequence (P17948 27-1338): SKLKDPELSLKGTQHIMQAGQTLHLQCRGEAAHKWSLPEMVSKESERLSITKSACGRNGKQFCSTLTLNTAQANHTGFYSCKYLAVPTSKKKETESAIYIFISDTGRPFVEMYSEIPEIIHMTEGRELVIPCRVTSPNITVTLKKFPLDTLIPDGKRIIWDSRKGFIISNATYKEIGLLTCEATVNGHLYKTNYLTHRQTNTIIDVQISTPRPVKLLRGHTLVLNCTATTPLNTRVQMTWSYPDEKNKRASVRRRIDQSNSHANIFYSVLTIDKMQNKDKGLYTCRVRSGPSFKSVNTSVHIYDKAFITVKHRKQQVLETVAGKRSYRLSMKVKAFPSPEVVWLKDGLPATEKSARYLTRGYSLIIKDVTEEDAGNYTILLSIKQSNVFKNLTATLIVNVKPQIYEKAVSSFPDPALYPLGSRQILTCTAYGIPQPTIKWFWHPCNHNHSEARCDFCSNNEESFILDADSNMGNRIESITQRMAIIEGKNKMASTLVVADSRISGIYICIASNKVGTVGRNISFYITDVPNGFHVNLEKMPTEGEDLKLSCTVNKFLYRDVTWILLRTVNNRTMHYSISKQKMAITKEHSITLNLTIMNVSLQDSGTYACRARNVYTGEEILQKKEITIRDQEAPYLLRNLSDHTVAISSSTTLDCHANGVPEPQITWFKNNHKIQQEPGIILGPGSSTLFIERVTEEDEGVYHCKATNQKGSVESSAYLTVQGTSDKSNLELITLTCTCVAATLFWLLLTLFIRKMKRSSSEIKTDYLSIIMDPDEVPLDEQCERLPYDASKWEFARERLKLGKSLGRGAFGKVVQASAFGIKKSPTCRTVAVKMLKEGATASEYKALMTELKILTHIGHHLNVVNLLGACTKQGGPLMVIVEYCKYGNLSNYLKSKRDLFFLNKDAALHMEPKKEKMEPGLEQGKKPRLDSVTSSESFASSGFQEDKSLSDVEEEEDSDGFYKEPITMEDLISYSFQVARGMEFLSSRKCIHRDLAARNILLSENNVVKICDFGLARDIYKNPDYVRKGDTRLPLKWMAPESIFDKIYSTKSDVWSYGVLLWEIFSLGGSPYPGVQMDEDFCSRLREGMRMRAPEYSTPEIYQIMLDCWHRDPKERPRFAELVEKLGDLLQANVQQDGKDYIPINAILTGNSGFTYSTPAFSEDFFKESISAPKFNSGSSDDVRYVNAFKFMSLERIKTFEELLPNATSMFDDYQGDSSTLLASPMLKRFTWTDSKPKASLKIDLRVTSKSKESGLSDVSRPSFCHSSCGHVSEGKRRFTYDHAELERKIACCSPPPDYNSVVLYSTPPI
Protocol: as §1, §2, §3, §4

EMK = EMK (Homo sapiens, UniProt Q7KZI7); conditions: ATP close to KM; read-out: EMK inhibition, IC50
EMK, sequence (Q7KZI7 whole entry): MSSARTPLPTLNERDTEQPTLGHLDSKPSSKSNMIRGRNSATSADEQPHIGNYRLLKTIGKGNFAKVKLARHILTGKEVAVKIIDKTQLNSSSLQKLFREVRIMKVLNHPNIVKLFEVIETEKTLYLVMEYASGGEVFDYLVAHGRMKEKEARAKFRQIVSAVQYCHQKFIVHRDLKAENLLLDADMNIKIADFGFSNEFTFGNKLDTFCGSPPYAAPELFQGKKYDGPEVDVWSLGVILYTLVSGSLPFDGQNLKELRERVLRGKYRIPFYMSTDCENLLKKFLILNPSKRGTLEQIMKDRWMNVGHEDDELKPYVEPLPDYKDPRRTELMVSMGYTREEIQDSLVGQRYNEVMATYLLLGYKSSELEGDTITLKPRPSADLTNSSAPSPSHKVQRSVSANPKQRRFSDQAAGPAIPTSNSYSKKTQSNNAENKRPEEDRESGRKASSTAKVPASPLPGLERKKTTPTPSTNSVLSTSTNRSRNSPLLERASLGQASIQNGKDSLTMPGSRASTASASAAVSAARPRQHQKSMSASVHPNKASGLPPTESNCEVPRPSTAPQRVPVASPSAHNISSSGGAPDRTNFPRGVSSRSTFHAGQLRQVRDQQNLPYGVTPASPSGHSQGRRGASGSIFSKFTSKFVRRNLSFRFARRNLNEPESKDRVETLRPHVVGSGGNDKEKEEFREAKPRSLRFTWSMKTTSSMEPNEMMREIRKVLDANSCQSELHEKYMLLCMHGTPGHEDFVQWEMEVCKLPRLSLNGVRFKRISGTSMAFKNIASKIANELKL
Protocol: as §1, §2, §3, §4

PDGFR-β, sequence (P09619 33-1106): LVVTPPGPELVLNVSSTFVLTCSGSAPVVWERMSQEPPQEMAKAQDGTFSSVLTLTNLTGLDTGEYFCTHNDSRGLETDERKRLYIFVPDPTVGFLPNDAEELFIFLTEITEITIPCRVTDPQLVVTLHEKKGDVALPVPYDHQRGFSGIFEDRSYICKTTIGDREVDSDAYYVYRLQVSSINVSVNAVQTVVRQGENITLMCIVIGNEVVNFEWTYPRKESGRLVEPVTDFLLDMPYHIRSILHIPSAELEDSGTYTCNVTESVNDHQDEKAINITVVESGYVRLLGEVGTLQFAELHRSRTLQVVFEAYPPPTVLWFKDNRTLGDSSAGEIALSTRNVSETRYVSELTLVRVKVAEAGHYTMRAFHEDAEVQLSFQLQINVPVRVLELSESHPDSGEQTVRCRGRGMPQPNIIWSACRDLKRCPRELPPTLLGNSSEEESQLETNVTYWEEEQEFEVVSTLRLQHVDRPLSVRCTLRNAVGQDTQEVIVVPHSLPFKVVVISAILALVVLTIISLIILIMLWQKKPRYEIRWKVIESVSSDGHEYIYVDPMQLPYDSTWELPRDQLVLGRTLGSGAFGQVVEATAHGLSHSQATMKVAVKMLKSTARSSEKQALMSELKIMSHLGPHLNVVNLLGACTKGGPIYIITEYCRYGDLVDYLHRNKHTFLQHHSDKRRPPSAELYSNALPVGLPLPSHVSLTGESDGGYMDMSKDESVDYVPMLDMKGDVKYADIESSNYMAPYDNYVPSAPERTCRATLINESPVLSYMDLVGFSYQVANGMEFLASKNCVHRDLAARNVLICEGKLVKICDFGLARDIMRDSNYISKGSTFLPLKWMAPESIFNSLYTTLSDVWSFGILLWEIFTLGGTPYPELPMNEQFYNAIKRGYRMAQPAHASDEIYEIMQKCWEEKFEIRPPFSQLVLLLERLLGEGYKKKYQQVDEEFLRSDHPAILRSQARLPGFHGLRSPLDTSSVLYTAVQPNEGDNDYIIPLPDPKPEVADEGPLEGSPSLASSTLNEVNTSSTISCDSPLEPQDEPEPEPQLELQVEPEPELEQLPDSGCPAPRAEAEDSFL

NC(=O)c1nc(-c2cccc3ccccc23)cnc1N [Example 2, 3-Amino-6-naphthalen-1-ylpyrazine-2-carboxamide]
IC50 (PDGFR-β): 50 to 1000 nM | IC50 (MAP4K3): < 50 nM | IC50 (Fyn): 1000 to 10000 nM | IC50 (PLK): 1000 to 10000 nM | IC50 (CLK1): 1000 to 10000 nM | IC50 (ErbB2): ≥ 10000 nM | IC50 (Flt1): 50 to 1000 nM | IC50 (EMK): 1000 to 10000 nM
